# From ChEMBL document CHEMBL1201862, “PubChem BioAssay data set” (2004)
#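 Cells were grown in 96-well plates and exposed to each compound for 48 hours at five concentrations; endpoints were interpolated linearly between bracketing concentrations, or set to the highest concentration if not reached. GI50: concentration for 50% inhibition of growth.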 Calls of active or inactive are those of the source. Rule as the data show it: active = GI50 up to about 1.1 µM and inactive = higher. Starred links: 1 amine or outer side, 2 acyl side, 3 side chain; linkers in the order of their positions; H or OH if unused. Non-standard residues stand in square brackets, D forms with d. Residues, ends and D or L forms follow the SMILES beside them. X41 = CSCCCC(N[*:1])C(=O)[*:2]
# Assays:
# Experiment in all cases: NCI-60 cell line screen, 48 h
# SNB-78 = test system: SNB-78
# DLD-1 = test system: DLD-1
# DMS-273 = test system: DMS-273
# LXFL 529 = test system: LXFL 529
# XF498 = test system: XF498
# RXF 631 = test system: RXF 631
# KM-20L2 = test system: KM-20L2
# BT-549 = test system: BT-549
# HOP-18 = test system: HOP-18
smiles,measurement,setting,value
CCCCCCCCCCCCCCCCCCOCC(C[N+]1(C)CCC(O)CC1)OCC (centres undefined),GI50,SNB-78,3.18 µM (inactive)
same,GI50,DLD-1,11.8 µM (inactive)
same,GI50,DMS-273,2.28 µM (inactive)
same,GI50,LXFL 529,2.84 µM (inactive)
same,GI50,XF498,13.3 µM (inactive)
same,GI50,RXF 631,4.93 µM (inactive)
C#CC[N+](C)(CC#C)CC#C,GI50,SNB-78,> 100 µM (inactive)
same,GI50,DLD-1,> 100 µM (inactive)
same,GI50,DMS-273,> 100 µM (inactive)
same,GI50,LXFL 529,> 100 µM (inactive)
same,GI50,XF498,> 100 µM (inactive)
same,GI50,RXF 631,> 100 µM (inactive)
same,GI50,KM-20L2,> 100 µM (inactive)
CN1C(=O)N(C)C2(CCN(CC(CC3OCCO3)c3ccc(F)cc3)CC2)C1=O (centres undefined),GI50,BT-549,> 100 µM (inactive)
Nc1ccc2nc(-c3ccccn3)c(-c3ccccn3)nc2c1,GI50,BT-549,> 100 µM (inactive)
N#Cc1c(N2CCCC2)ncn(-c2ccccc2)c1=S,GI50,BT-549,> 100 µM (inactive)
COC1C(=O)N(SC)C1c1ccccc1Cl (centres undefined),GI50,BT-549,23.4 µM (inactive)
CC(C)(C)Cc1cc(O)ccc1O,GI50,BT-549,93.3 µM (inactive)
COC(=O)/C=C1\C(=O)Nc2ccc(Br)cc21,GI50,BT-549,1.69 µM (inactive)
O/N=C1/C(=C/c2ccc(Br)cc2)CCCC1C(NO)c1ccc(Br)cc1 (centres undefined),GI50,SNB-78,13.4 µM (inactive)
same,GI50,DMS-273,13.1 µM (inactive)
same,GI50,LXFL 529,14.8 µM (inactive)
same,GI50,HOP-18,18.9 µM (inactive)
same,GI50,RXF 631,14.8 µM (inactive)
same,GI50,KM-20L2,17.3 µM (inactive)
Cc1sc2nc(-c3ccc(Cl)c([N+](=O)[O-])c3)c(/C=N/NC(=N)N)n2c1C,GI50,BT-549,1.7 µM (inactive)
COc1oc(C2C/C(=C/C(C)=C/C(C)=C/C(C)=C/c3ccc([N+](=O)[O-])cc3)CO2)c(C)c(=O)c1C (centres undefined),GI50,BT-549,2.73 µM (inactive)
O=C(O[C@H]1[C@@H]2C=CO[C@@H](OC3OC(CO)C(O)C(O)C3O)[C@@H]2[C@@]2(CO)O[C@@H]12)c1ccc(O)c(O)c1 (some centres undefined),GI50,SNB-78,> 100 µM (inactive)
same,GI50,DLD-1,> 100 µM (inactive)
same,GI50,DMS-273,> 100 µM (inactive)
same,GI50,LXFL 529,> 100 µM (inactive)
same,GI50,XF498,41.5 µM (inactive)
same,GI50,KM-20L2,> 100 µM (inactive)
CSCCCC(NC(=O)CNC(=O)C1CCCN1C(=O)C(Cc1ccc(O)cc1)NC(=O)C(Cc1ccccc1)NC(=O)C(CCCNC(=N)N)NC(=O)C(CC(=O)O)NC(=O)C1CCCN1C(=O)C(CC(=O)O)NC(=O)C1CCCN1C(=O)C1CCCN1C(=O)CN)C(N)=O (centres undefined) (H-GPPDPDRFYPG[X41]-NH2; configuration not given here),GI50,BT-549,> 50 µM (inactive)
S=C(NCc1ccccc1)N/N=C/c1ccccn1,GI50,BT-549,8.02 µM (inactive)
NS(=O)(=O)c1nn2c(Br)c(-c3ccccc3)nc2s1,GI50,BT-549,2.97 µM (inactive)
Clc1ccc(/C=C/c2nc(-c3ccccc3)cn3c2nc2ccccc23)cc1Cl,GI50,BT-549,61.7 µM (inactive)
Cc1ccc(N/N=C2\C3=C(CCC(C)(C)O3)C(=O)c3ccccc32)cc1,GI50,BT-549,26.1 µM (inactive)
COc1cc(Nc2ccc3c(c2)CCC3)nc(OC)n1,GI50,BT-549,33.3 µM (inactive)
NS(=O)(=O)c1ccc(/N=N/c2ccc(O)c(C(=O)O)c2)cc1 [SALAZOSULFAMIDE],GI50,BT-549,> 100 µM (inactive)
O=C1c2cn[nH]c2N=C(Nc2ccccc2)C1/N=C/c1ccc([N+](=O)[O-])cc1 (centres undefined),GI50,BT-549,> 10 µM (inactive)
Cc1nnc(-n2c(O)cc(=O)n(-c3ccccc3)c2=S)nc1/C=C/c1ccc(N(C)C)cc1,GI50,BT-549,20.9 µM (inactive)
Clc1ccccc1C(Nc1cnccn1)Nc1cnccn1,GI50,BT-549,> 100 µM (inactive)
O=C1CCCC/C1=C/C=C/c1ccccc1,GI50,DLD-1,46.9 µM (inactive)
same,GI50,LXFL 529,64.9 µM (inactive)
same,GI50,HOP-18,> 100 µM (inactive)
same,GI50,XF498,> 100 µM (inactive)
same,GI50,RXF 631,69.2 µM (inactive)
same,GI50,KM-20L2,68.1 µM (inactive)
C[N+](C)(C)CC1CCC(C[N+](C)(C)C)C1=NO (centres undefined),GI50,SNB-78,> 100 µM (inactive)
same,GI50,DLD-1,> 100 µM (inactive)
same,GI50,LXFL 529,> 100 µM (inactive)
same,GI50,HOP-18,> 100 µM (inactive)
same,GI50,XF498,> 100 µM (inactive)
same,GI50,KM-20L2,> 100 µM (inactive)
Cc1nc(Nc2ccccc2)sc1C(=O)CC(=O)C(=O)Nc1c(C(C)C)cccc1C(C)C,GI50,SNB-78,> 100 µM (inactive)
same,GI50,DLD-1,87.9 µM (inactive)
same,GI50,DMS-273,> 100 µM (inactive)
same,GI50,LXFL 529,60 µM (inactive)
same,GI50,HOP-18,> 100 µM (inactive)
same,GI50,XF498,> 100 µM (inactive)
same,GI50,KM-20L2,85.1 µM (inactive)
O=c1c2ccccc2nc(-c2cccc([N+](=O)[O-])c2)n1O,GI50,BT-549,12 µM (inactive)
CC(=O)CCNc1ccc(-c2cc(-c3ccc(N(C)C)cc3)nc3ccc4ccccc4c23)cc1,GI50,BT-549,35.9 µM (inactive)
O=C(OCCC12CC3CC(CC(C3)C1)C2)c1ccc(NCc2cc(O)ccc2O)cc1,GI50,BT-549,0.241 µM (active)
CC(C)=CCC[C@@H](C)C1=C(O)C(=O)C(C)=C(Nc2ccccc2I)C1=O,GI50,BT-549,23.6 µM (inactive)
NC(Cc1ccccc1)C(=O)OCN1C(=O)C2C3C=CC(C2C1=O)C1C2C(=O)N(COC(=O)C(N)Cc4ccccc4)C(=O)C2C31 (centres undefined),GI50,DLD-1,23 µM (inactive)
same,GI50,LXFL 529,19.4 µM (inactive)
same,GI50,XF498,30.8 µM (inactive)
same,GI50,KM-20L2,28.4 µM (inactive)
COC12CCCN1c1ccn(Cc3ccccc3)c(=O)c1C2=O (centres undefined),GI50,BT-549,> 100 µM (inactive)
CC1=C(/C(C)=N/NC(=O)c2ccccc2O)C(C)C(/C(C)=N/NC(=O)c2ccccc2O)=C(C)N1,GI50,SNB-78,40.6 µM (inactive)
same,GI50,DLD-1,27.9 µM (inactive)
same,GI50,LXFL 529,23.3 µM (inactive)
same,GI50,XF498,15.1 µM (inactive)
same,GI50,RXF 631,37.1 µM (inactive)
same,GI50,KM-20L2,33.3 µM (inactive)
Cc1cc(OC(=O)c2c(C)cc(OC(=O)c3c(C)cc(O)cc3O)cc2O)cc(O)c1C(=O)O [GYROPHORIC ACID],GI50,SNB-78,> 100 µM (inactive)
same,GI50,DLD-1,> 100 µM (inactive)
same,GI50,DMS-273,> 100 µM (inactive)
same,GI50,LXFL 529,> 100 µM (inactive)
same,GI50,XF498,> 100 µM (inactive)
same,GI50,RXF 631,> 100 µM (inactive)
same,GI50,KM-20L2,> 100 µM (inactive)
